Results from US9630977B2, “Cephalosporin derivatives and pharmaceutical compositions thereof” (Legochem Biosciences, Inc., priority 2011, dated 2017).

Legend:
[1] = test system: P. aeruginosa 1912E; assay: In vivo efficacy, whole-body infected mouse model, Ceftazidime-sensitive bacteria; design: species or system ICR mouse; conditions: P. aeruginosa 1912E (2 × 10^6CFU/mouse); for Survival rate: four days
Procedure: (§1) Pharmaceutical efficacy of the cephalosporin derivative compounds according to the present invention was evaluated in a whole-body infected mouse model. Tables 3 and 4 show survival rate and ED50 values for the two compounds with excellent antibacterial activity with regard to an infected mouse by a drug-sensitive bacteria and a drug-resistant bacteria.
(§2) Test animals: 3 week old male ICR mouse, weight 18˜22 g; 5 mice/group.
(§3) Lab conditions: Temperature of 23±2° C.; humidity of 55±20%.
(§4) Administration method: Inducing whole-body infection by bacterial solution followed by subcutaneous injection (0.2 mL) after 1 hour and 4 hours.
(§5) Test method: Cultured bacteria were diluted with 0.9% NaCl to prepare a bacterial solution having a concentration that is 5 to 10 times of […]. 0.5 mL of bacterial solution was injected through abdominal cavity to induce whole-body infection. Test compounds were administered in four different amounts, which were designed considering in vitro MIC values of the test bacteria. After 1 hour and 4 hours, the four different amounts of the test compounds were subcutaneously administered. Survival rates were measured for four days and ED50 values were calculated according to the Probit method.

[2] = test system: P. aeruginosa R1023; assay: In vivo efficacy, whole-body infected mouse model, Ceftazidime-resistant bacteria;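 as to Survival rate: each column one dose of 5 10 20 or 40 mg/kg given sc at 1 h and 4 h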; design: species or system ICR mouse; conditions: for Survival rate: subcutaneous 1 h and 4 h after infection, P. aeruginosa R1023 (2 × 10^6 CFU/mouse), four days
Procedure: as §1, §2, §3, §4, §5

`CC(C)(O/N=C(\C(=O)N[C@@H]1C(=O)N2C(C(=O)[O-])=C(/C=C/C[n+]3cnc(N)c(NCCNC(=O)c4cc(=O)c(O)cn4O)c3)CSC12)c1csc(N)n1)C(=O)O` (some centres unmarked) [Compound 8] showed a Survival rate ([1]; 2.5 mg/kg subcutaneous after 1 hour and 4 hours) of 60%, a Survival rate ([1]; 5 mg/kg subcutaneous after 1 hour and 4 hours) of 80% and a Survival rate ([1]; 10 mg/kg subcutaneous after 1 hour and 4 hours) of 100%. It also gave a Survival rate ([1]; 20 mg/kg subcutaneous after 1 hour and 4 hours) of 100% and an ED50 ([1]; Pseudomonas aeruginosa, sc, subcutaneous, Probit method) of 1.25 mg/kg.
In the case of `C[C@H](O/N=C(\C(=O)N[C@@H]1C(=O)N2C(C(=O)[O-])=C(C[n+]3cnc(N)c(NCCNC(=O)c4cc(=O)c(O)cn4O)c3)CSC12)c1nc(N)sc1Cl)C(=O)O` (some centres unmarked) [Compound 4], the ED50 ([2]; Pseudomonas aeruginosa, sc, Probit method, subcutaneous, mouse infected by Ceftazidime-resistant P. aeruginosa R1023) is reported as 10 mg/kg, the Survival rate ([2]; administered amount 5 mg/kg) is reported as 40% and the Survival rate ([2]; administered amount 10 mg/kg) is reported as 40%. For the same compound, the Survival rate ([2]; administered amount 20 mg/kg) was 80%, the Survival rate ([2]; administered amount 40 mg/kg) was 100% and the “pharmaceutical efficacy (in words)” value ([2]; whole-body infected mice by the drug-resistant bacteria) was “much greater than that of Ceftazidime”.
